{
  "source": "patent US8835456B1",
  "about": "“NS5A inhibitors useful for treating HCV” (Achillion Pharmaceuticals, Inc., priority 2011, dated 2014)",
  "data": [
    {"system": "Hepatitis C replicon", "assay": "HCV replicon replication assay (NPT level by captured ELISA)", "type": "cell-based", "details": "Hepatitis C virus, Huh-7, 72 h", "experimental": "Compounds claimed herein are tested for the ability to inhibit viral replication of the Hepatitis C replicon in cultured cells in which the HCV replicon construct has been incorporated. The HCV replicon system was described by Bartenschlager, et. al (Science, 285, pp. 110-113 (1999)). The replicon system is predictive of in vivo anti-HCV activity; compounds that are active in humans uniformly evidence activity in the replicon assay.\nIn this assay HCV replicon containing cells are treated with different concentrations of the test compound to ascertain the ability of the test compound to suppress replication of the HCV replicon. As a positive control, HCV replicon-containing cells are treated with different concentrations of interferon alpha, a known inhibitor of HCV replication. The replicon assay system includes Neomycin Phosphotransferase (NPT) as a component of the replicon itself in order to detect the transcription of replicon gene products in the host cell. Cells in which the HCV replicon is actively replicating have high levels of NPT; the level of NPT is proportional to HCV replication. […] The NPT level of each sample is measured using a captured ELISA.\nA protocol for testing compounds for the ability to inhibit viral replication of the Hepatitis C replicon cultured cells in which the replicon construct has been incorporated, follows.\nThe HCV genome consists of a single ORF that encodes a 3000 amino acid polyprotein. The ORF is flanked on the 5′ side by an untranslated region that serves as an internal ribosome entry site (IRES) and at the 3′ side by a highly conserved sequence necessary for viral replication (3′-NTR). The structural proteins, necessary for viral infection, are located near the 5′ end of the ORF. The non-structural proteins, designated NS2 to NS5B comprise the remainder of the ORF. […]\nHCV replicon-containing cells are examined under a microscope to ensure that cells growing well. […] The cells are counted. […]", "units": {"EC50": "nM"}, "values": [
      {"smiles": "COC(=O)N[C@H](C(=O)N1C2CCC(C2)[C@H]1c1nc(-c2ccc(-c3ccc(-c4c[nH]c([C@@H]5CC6CCCCC6N5C(=O)[C@@H](NC(=O)OC)C(C)C)n4)cc3)cc2)c[nH]1)C(C)C", "note": "(stereo partly drawn) [Compound 10]", "EC50": "< 10"},
      {"smiles": "COC(=O)N[C@H](C(=O)N1C2CCC(C2)[C@H]1c1nc(-c2ccc(-c3ccc(-c4c[nH]c([C@@H]5CC6CCCCC6N5C(=O)[C@@H](NC(=O)OC)C(C)C)n4)cc3)nc2)c[nH]1)C(C)C", "note": "(stereo partly drawn) [Compound 14]", "EC50": "< 10"},
      {"smiles": "COC(=O)N[C@H](C(=O)N1C2CCC(C2)[C@H]1c1nc(-c2ccc(-c3ccc(-c4c[nH]c([C@@H]5CC6CCCCC6N5C(=O)[C@@H](NC(=O)OC)C(C)C)n4)cc3)s2)c[nH]1)C(C)C", "note": "(stereo partly drawn) [Compound 15]", "EC50": "< 10"}
    ]}
  ]
}
